Data: patent US20250195521A1 (Revolution Medicines, Inc., priority 2020, published 2025)
Read-outs that look alike come from different tables or passages of the source.

How the values were obtained:
AsPC-1 (K-Ras G12D) [1] = assay: CellTiter-Glo cell viability assay, AsPC-1; type: cell-based, human; settings: Homo sapiens, ASPC1, 120 h, read-out: AsPC-1 Cell Viability IC50
Experimental: Note—The following protocol describes a procedure for monitoring cell viability of K-Ras mutant cancer cell lines in response to a compound of the invention. Other RAS isoforms may be employed, though the number of cells to be seeded will vary based on cell line used.
Test compounds (132.5 nL) were directly dispensed into the assay plates containing cells. […] On day 5, assay plates and their contents were equilibrated to room temperature for approximately 30 minutes. […] Luminescence was measured using the PerkinElmer Enspire. Data were normalized by the following: (Sample signal/Avg. DMSO)*100. The data were fit using a four-parameter logistic fit.

[2] = system: Capan-1 cells (K-Ras G12V); assay: CellTiter-Glo cell viability, Capan-1; type: cell-based, human; settings: Homo sapiens, CAPAN-1, 120 h, K-Ras G12V, 5-day treatment; read-out: Capan-1 Cell Viability IC50
Summary of the method: (§1)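 Luminescence read on day 5 after ~30 min room-temperature equilibration; compounds added directly to plated cells. Values = (sample signal/avg DMSO)*100, four-parameter logistic fit.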

[3] = target: K-Ras G12C(GMP-PNP) binding to BRAF RBD (Homo sapiens (Human), UniProt P01116+P62937, G12C); assay: Disruption of BRAF RBD interaction with K-Ras (FRET / MOA assay), K-Ras G12C; type: biochemical; settings: read-out: KRAS G12C FRET IC50
Summary of the method: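 Compounds promote ternary complex of nucleotide-loaded Ras (here K-Ras G12C·GMP-PNP; other Ras mutants substituted) with cyclophilin A, disrupting BRAF RBD binding. 10-point 3-fold series from 30 μM final, 3 h at 25 °C, then anti-His Eu (10 nM) and anti-GST APC (50 nM) for 1.5 h. TR-FRET ratio decrease versus DMSO gave IC50.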

NCI-H358 (K-Ras G12C) = assay: CellTiter-Glo cell viability assay, NCI-H358; type: cell-based, human; settings: Homo sapiens, NCI-H358, 120 h, 5-day treatment; read-out: H358 Cell Viability assay data (K-Ras G12C, IC50)
Summary of the method: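 Luminescent CellTiter-Glo read-out on day 5 after compound exposure; signal expressed as percent of mean DMSO control; four-parameter logistic fit gives the value.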

[4] = system: NCI-H358 cells (K-Ras G12C); assay: CellTiter-Glo cell viability, NCI-H358; type: cell-based, human; settings: Homo sapiens, NCI-H358, 120 h, K-Ras G12C, 5-day treatment; read-out: H358 Cell Viability IC50
Summary of the method: as §1

KRAS G12D = KRAS G12D (Homo sapiens (Human), UniProt P01116+P62937, G12D); assay: Ras-Raf disruption/FRET/MOA assay (BRAF RBD, Cyclophilin A); type: biochemical; settings: read-out: KRAS G12D FRET IC50
Summary of the method: (§2)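 TR-FRET read after 1.5 h with 10 nM anti-His Eu-W1024 and 50 nM anti-GST APC, following 3 h at 25 °C of GMPPNP-loaded His6-Ras (12.5 nM), GST-BRAF RBD (50 nM) and Cyclophilin A (25 μM) with compound from 30 μM final, 10 points, 3-fold. IC50 reported; pH 7.3 HEPES, 100 mM NaCl.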

KRAS G12V = KRAS G12V (Homo sapiens (Human), UniProt P01116+P62937, G12V); assay: as above; type: biochemical; settings: read-out: KRAS G12V FRET IC50
Summary of the method: as §2

NRAS G12C = NRAS G12C (Homo sapiens (Human), UniProt P01111+P62937, G12C); assay: as above; type: biochemical; settings: read-out: NRAS G12C FRET data IC50
Summary of the method: (§3)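 Measured: compound-facilitated Cyclophilin A:Ras complex blocking RAF RBD binding. Conditions: 12.5 nM Ras-GMPPNP, 50 nM BRAF RBD, 25 μM CypA, 3 h plus 1.5 h detection. Output: IC50 from TR-FRET ratio.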

KRAS G12C = KRAS G12C (Homo sapiens (Human), UniProt P01116+P62937, G12C); assay: as above; type: biochemical; settings: read-out: KRAS G12C FRET IC50
Summary of the method: as §2

NRAS WT = NRAS WT (Homo sapiens (Human), UniProt P01111+P62937); assay: as above; type: biochemical
Summary of the method: as §3

KRAS G13D = KRAS G13D (Homo sapiens (Human), UniProt P01116+P62937, G13D); assay: as above; type: biochemical; settings: read-out: KRAS G13D FRET data IC50
Summary of the method: as §2

KRAS WT = KRAS WT (Homo sapiens (Human), UniProt P01116+P62937); assay: as above; type: biochemical; settings: read-out: KRAS WT FRET data IC50
Summary of the method: as §2

KRAS G13C = KRAS G13C (Homo sapiens (Human), UniProt P01116+P62937, G13C); assay: as above; type: biochemical; settings: read-out: KRAS G13C FRET IC50
Summary of the method: as §2

NRAS Q61R = NRAS Q61R (Homo sapiens (Human), UniProt P01111+P62937, Q61R); assay: as above; type: biochemical
Summary of the method: as §3

KRAS Q61H = KRAS Q61H (Homo sapiens (Human), UniProt P01116+P62937, Q61H); assay: as above; type: biochemical
Summary of the method: as §2

KRAS G12S = KRAS G12S (Homo sapiens (Human), UniProt P01116+P62937, G12S); assay: as above; type: biochemical; settings: read-out: KRAS G12S FRET IC50
Summary of the method: as §2

NRAS Q61K = NRAS Q61K (Homo sapiens (Human), UniProt P01111+P62937, Q61K); assay: as above; type: biochemical
Summary of the method: as §3

AsPC-1 (K-Ras G12D) [5] = assay: Potency assay: pERK; type: cell-based, human; settings: Homo sapiens, ASPC1, read-out: pERK EC50
Experimental: The purpose of this assay is to measure the ability of test compounds to inhibit K-Ras in cells. […] This procedure measures a decrease in cellular pERK in response to test compounds. The procedure described below in NCI-H358 cells is applicable to K-Ras G12C.
NCI-H358 cells were grown and maintained using media and procedures recommended by the ATCC. On the day prior to compound addition, cells were plated in 384-well cell culture plates (40 μl/well) and grown overnight in a 37° C., 5% CO2 incubator. Test compounds were prepared in 10, 3-fold dilutions in DMSO, with a high concentration of 10 mM. On the day of assay, 40 nL of test compound was added to each well of cell culture plate using an Echo550 liquid handler (LabCyte®). Concentrations of test compound were tested in duplicate. After compound addition, cells were incubated 4 hours at 37° C., 5% CO2. Following incubation, culture medium was removed and cells were washed once with phosphate buffered saline.
In some experiments, cellular pERK level was determined using the AlphaLISA SureFire Ultra p-ERK1/2 Assay Kit (PerkinElmer). Cells were lysed in 25 μL lysis buffer, with shaking at 600 RPM at room temperature. Lysate (10 μL) was transferred to a 384-well Opti-plate (PerkinElmer) and 5 μL acceptor mix was added. After a 2-hour incubation in the dark, 5 μL donor mix was added, plate was sealed, and incubated 2 hours at room temperature. Signal was read on an Envision plate reader (PerkinElmer) using standard AlphaLISA settings. Analysis of raw data was carried out in Excel (Microsoft) and Prism (GraphPad). Signal was plotted vs. the decadal logarithm of compound concentration, and IC50 was determined by fitting a 4-parameter sigmoidal concentration response model.
In other experiments, cellular pERK was determined by In-Cell Western. Following compound treatment, cells were washed twice with 200 μL tris buffered saline (TBS) and fixed for 15 minutes with 150 μL 4% paraformaldehyde in TBS. Fixed cells were washed 4 times for 5 minutes with TBS containing 0.1% Triton X-100 (TBST) and then blocked with 100 μL Odyssey blocking buffer (LI-COR) for 60 minutes at room temperature. Primary antibody (PERK, CST-4370, Cell Signaling Technology) was diluted 1:200 in blocking buffer, and 50 μL was added to each well and incubated overnight at 4° C. Cells were washed 4 times for 5 minutes with TBST. Secondary antibody (IR-800CW rabbit, LI-COR, diluted 1:800) and DNA stain DRAQ5 (LI-COR, diluted 1:2000) were added and incubated 1-2 hours at room temperature. Cells were washed 4 times for 5 minutes with TBST. Plates were scanned on a Li—COR Odyssey CLx Imager. Analysis of raw data was carried out in Excel (Microsoft) and Prism (GraphPad). Signal was plotted vs. the decadal logarithm of compound concentration, and IC50 was determined by fitting a 4-parameter sigmoidal concentration response model.

Sequence of K-Ras G12C(GMP-PNP) binding to BRAF RBD (P01116 other isoform, or with tags, fused parts or gaps G12C): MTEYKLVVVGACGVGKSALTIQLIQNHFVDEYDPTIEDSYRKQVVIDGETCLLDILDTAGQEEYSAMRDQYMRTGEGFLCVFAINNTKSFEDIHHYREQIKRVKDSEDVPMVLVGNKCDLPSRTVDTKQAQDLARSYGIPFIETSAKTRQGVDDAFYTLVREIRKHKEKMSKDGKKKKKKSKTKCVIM
Sequence of K-Ras G12C(GMP-PNP) binding to BRAF RBD (P62937 whole entry): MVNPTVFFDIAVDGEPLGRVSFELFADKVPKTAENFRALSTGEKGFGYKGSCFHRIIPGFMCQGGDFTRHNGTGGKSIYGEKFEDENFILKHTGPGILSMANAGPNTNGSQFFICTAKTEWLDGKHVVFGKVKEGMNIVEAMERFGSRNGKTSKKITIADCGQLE
Sequence of KRAS G12C (P01116-2 other isoform, or with tags, fused parts or gaps G12C): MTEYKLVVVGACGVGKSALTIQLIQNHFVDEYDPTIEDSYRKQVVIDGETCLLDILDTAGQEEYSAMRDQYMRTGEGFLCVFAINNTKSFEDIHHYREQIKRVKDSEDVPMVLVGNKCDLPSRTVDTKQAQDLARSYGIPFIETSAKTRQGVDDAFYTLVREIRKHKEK
Sequence of KRAS G12C (P62937 whole entry): as the sequence (P62937 whole entry) above
Sequence of KRAS Q61H (P01116 other isoform, or with tags, fused parts or gaps Q61H): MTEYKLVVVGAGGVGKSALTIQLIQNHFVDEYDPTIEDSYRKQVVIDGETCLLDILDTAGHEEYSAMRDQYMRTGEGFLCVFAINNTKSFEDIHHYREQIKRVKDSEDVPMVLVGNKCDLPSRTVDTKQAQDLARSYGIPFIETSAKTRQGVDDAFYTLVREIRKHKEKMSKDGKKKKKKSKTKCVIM
Sequence of KRAS Q61H (P62937 whole entry): as the sequence (P62937 whole entry) above
Sequence of NRAS G12C (P01111 whole entry G12C): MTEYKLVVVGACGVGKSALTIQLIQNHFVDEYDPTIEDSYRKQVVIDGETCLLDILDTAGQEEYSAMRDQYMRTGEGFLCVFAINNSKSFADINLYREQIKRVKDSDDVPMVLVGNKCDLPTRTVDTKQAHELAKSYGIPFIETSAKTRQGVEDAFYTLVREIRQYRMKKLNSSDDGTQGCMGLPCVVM
Sequence of NRAS G12C (P62937 whole entry): as the sequence (P62937 whole entry) above
Sequence of NRAS WT (P01111 whole entry): as the sequence (P01111 whole entry G12C) above, with C12G counted along it
Sequence of NRAS WT (P62937 whole entry): as the sequence (P62937 whole entry) above
Sequence of KRAS G12S (P01116 other isoform, or with tags, fused parts or gaps G12S): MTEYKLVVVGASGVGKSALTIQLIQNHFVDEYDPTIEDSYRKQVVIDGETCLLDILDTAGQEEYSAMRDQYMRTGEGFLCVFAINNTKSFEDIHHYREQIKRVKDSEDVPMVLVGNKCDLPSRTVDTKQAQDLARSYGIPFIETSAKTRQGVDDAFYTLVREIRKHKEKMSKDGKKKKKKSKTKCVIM
Sequence of KRAS G12S (P62937 whole entry): as the sequence (P62937 whole entry) above
Sequence of NRAS Q61K (P01111 whole entry Q61K): as the sequence (P01111 whole entry G12C) above, with C12G, Q61K counted along it
Sequence of NRAS Q61K (P62937 whole entry): as the sequence (P62937 whole entry) above
Sequence of KRAS G12D (P01116 other isoform, or with tags, fused parts or gaps G12D): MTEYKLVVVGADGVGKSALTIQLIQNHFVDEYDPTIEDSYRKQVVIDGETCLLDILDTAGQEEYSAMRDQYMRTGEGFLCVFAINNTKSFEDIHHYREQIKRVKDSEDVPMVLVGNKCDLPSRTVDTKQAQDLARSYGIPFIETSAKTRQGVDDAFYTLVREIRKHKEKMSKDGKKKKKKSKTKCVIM
Sequence of KRAS G12D (P62937 whole entry): as the sequence (P62937 whole entry) above
Sequence of KRAS G12V (P01116 other isoform, or with tags, fused parts or gaps G12V): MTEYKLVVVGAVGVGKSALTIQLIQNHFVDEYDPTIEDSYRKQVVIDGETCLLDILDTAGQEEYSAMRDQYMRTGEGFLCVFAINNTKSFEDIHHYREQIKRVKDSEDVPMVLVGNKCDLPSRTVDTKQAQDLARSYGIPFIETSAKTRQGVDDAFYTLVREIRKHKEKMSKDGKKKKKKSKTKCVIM
Sequence of KRAS G12V (P62937 whole entry): as the sequence (P62937 whole entry) above
Sequence of NRAS Q61R (P01111 whole entry Q61R): as the sequence (P01111 whole entry G12C) above, with C12G, Q61R counted along it
Sequence of NRAS Q61R (P62937 whole entry): as the sequence (P62937 whole entry) above
Sequence of KRAS G13D (P01116 other isoform, or with tags, fused parts or gaps G13D): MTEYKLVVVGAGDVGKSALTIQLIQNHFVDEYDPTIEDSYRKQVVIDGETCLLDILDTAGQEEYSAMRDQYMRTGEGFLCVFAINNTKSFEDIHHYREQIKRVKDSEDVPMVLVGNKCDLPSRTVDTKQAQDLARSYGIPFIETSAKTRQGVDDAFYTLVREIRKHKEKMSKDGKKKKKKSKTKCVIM
Sequence of KRAS G13D (P62937 whole entry): as the sequence (P62937 whole entry) above
Sequence of KRAS WT (P01116 other isoform, or with tags, fused parts or gaps): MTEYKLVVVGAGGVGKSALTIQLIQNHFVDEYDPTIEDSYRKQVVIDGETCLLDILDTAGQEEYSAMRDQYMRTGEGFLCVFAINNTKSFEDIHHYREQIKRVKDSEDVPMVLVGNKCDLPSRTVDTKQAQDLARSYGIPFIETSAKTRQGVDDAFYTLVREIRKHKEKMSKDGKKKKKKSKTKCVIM
Sequence of KRAS WT (P62937 whole entry): as the sequence (P62937 whole entry) above
Sequence of KRAS G13C (P01116 other isoform, or with tags, fused parts or gaps G13C): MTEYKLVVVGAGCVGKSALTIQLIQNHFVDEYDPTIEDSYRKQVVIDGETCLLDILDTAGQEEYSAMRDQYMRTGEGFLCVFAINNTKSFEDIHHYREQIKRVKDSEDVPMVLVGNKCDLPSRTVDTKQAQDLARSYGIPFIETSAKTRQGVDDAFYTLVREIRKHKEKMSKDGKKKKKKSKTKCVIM
Sequence of KRAS G13C (P62937 whole entry): as the sequence (P62937 whole entry) above

| SMILES | IC50 [2] [nM] | IC50 [3] [nM] | IC50 (NCI-H358 (K-Ras G12C)) [nM] | IC50 [4] [nM] | IC50 (KRAS G12D) [nM] | IC50 (KRAS G12V) [nM] | IC50 (NRAS G12C) [nM] | IC50 (KRAS G12C) [nM] | IC50 (NRAS WT) [nM] | IC50 (KRAS G13D) [nM] | IC50 (KRAS WT) [nM] | IC50 (KRAS G13C) [nM] | IC50 (NRAS Q61R) [nM] | IC50 (KRAS Q61H) [nM] | IC50 (KRAS G12S) [nM] | IC50 (NRAS Q61K) [nM] | EC50 (AsPC-1 (K-Ras G12D) [5]) [nM] | IC50 (AsPC-1 (K-Ras G12D) [1]) [nM] | also measured |
| --- | --- | --- | --- | --- | --- | --- | --- | --- | --- | --- | --- | --- | --- | --- | --- | --- | --- | --- | --- |
| CCn1c(-c2cccnc2[C@H](C)OC)c2c3cc(ccc31)-c1cc(O)cc(c1)C[C@H](NC(=O)[C@H](C(C)C)N(C)C(=O)N1CCN(C(=O)[C@@H]3CN3)C(=O)C1)C(=O)N1CCC[C@H](N1)C(=O)OCC(C)(C)C2 (atropisomer, axis not shown) [Example 194] | – | – | – | – | – | – | – | – | – | – | – | – | – | – | – | – | – | – | IC50 (AsPC-1 (K-Ras G12D) [1]; K-Ras G12D, 5-day treatment): > 10000 nM |
| CCn1c(-c2cccnc2[C@H](C)OC)c2c3cc(ccc31)-c1csc(n1)C[C@H](NC(=O)[C@H](C(C)C)N(C)C(=O)N1C[C@H]3CCN(C)[C@H]3C1)C(=O)N1CCC[C@H](N1)C(=O)OCC(C)(C)C2 [Compound A568] | 100 to 1000 | 10 to 100 | 10 to 100 | 10 to 100 | 100 to 1000 | 100 to 1000 | 100 to 1000 | 100 to 1000 | 100 to 1000 | 100 to 1000 | 100 to 1000 | 100 to 1000 | 100 to 1000 | 100 to 1000 | 100 to 1000 | 100 to 1000 | – | – | – |
| CCn1c(-c2cccnc2[C@H](C)OC)c2c3cc(ccc31)-c1csc(n1)C[C@H](NC(=O)[C@H](C(C)C)N(C)C(=O)N(C)[C@H]1CCCN(C)C1)C(=O)N1CCC[C@H](N1)C(=O)OCC(C)(C)C2 [Compound A588] | 100 to 1000 | 100 to 1000 | 10 to 100 | 10 to 100 | 100 to 1000 | 1000 to 10000 | 100 to 1000 | 100 to 1000 | 100 to 1000 | 100 to 1000 | 100 to 1000 | 100 to 1000 | 1000 to 10000 | 100 to 1000 | 100 to 1000 | 100 to 1000 | – | – | – |
| CCn1c(-c2cccnc2[C@H](C)OC)c2c3cc(ccc31)-c1cc(O)cc(c1)C[C@H](NC(=O)[C@H](C(C)C)N(C)C(=O)[C@@H](C)N(C)C(=O)[C@H]1CN1)C(=O)N1CCC[C@H](N1)C(=O)OCC(C)(C)C2 [Example 114] | – | – | – | – | – | – | – | – | – | – | – | – | – | – | – | – | < 5000 | 1000 to 10000 | – |
| CCn1c(-c2cccnc2[C@H](C)OC)c2c3cc(ccc31)-c1cc(O)cc(c1)C[C@H](NC(=O)[C@H](C(C)C)N(C)C(=O)CN(C)C(=O)[C@H]1N[C@H]1C1CC1)C(=O)N1CCC[C@H](N1)C(=O)OCC(C)(C)C2 [Example 134] | – | – | – | – | – | – | – | – | – | – | – | – | – | – | – | – | < 5000 | 1000 to 10000 | – |
| CCn1c(-c2cccnc2[C@H](C)OC)c2c3cc(ccc31)-c1cc(O)cc(c1)C[C@H](NC(=O)[C@H](C(C)C)N(C)C(=O)CNC(=O)[C@H]1CN1)C(=O)N1CCC[C@H](N1)C(=O)OCC(C)(C)C2 [Example 140] | – | – | – | – | – | – | – | – | – | – | – | – | – | – | – | – | < 5000 | 1000 to 10000 | – |
